Measurements reported in patent publication US9035074B2, “Pyrrolo[2,3-D]pyrimidine derivatives” (Pfizer Inc., priority 2013, dated 2015).
pIC50: −log10 of the molar value.

Target: JAK3 (Homo sapiens (Human), UniProt P52333)
Test: JAK Caliper Enzyme Assay at 1 mM ATP (JAK3)
Format: biochemical

JAK3, sequence (P52333 whole entry, species assumed): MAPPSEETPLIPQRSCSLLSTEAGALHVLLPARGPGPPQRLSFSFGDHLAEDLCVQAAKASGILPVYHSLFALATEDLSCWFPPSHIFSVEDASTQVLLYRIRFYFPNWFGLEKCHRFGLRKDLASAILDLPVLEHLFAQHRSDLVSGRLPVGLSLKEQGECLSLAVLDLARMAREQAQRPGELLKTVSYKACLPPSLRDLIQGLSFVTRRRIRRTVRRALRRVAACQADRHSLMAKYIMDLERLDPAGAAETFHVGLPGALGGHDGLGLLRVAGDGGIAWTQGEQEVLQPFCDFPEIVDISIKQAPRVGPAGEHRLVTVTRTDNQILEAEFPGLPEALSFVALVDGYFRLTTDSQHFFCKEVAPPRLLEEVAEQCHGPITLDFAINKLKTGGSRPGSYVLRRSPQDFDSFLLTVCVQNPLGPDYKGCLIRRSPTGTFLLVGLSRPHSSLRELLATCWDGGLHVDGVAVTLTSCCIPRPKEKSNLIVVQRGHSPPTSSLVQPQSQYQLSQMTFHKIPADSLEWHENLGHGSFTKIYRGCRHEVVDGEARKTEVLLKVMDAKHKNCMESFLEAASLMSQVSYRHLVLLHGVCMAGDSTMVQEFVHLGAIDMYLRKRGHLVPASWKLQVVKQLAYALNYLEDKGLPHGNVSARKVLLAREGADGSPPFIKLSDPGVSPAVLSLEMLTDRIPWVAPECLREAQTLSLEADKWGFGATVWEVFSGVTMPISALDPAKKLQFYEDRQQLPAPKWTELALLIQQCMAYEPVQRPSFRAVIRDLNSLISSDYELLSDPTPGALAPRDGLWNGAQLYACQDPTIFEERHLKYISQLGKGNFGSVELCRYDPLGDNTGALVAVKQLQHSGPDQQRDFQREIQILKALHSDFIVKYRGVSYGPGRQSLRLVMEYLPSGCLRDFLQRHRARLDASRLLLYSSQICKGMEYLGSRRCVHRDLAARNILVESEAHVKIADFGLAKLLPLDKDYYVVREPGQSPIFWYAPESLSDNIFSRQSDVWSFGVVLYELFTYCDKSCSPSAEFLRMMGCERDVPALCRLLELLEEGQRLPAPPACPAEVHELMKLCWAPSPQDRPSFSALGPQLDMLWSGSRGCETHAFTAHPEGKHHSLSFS

pIC50	SMILES
< 5.00	CN(c1ncnc2[nH]ccc12)[C@H]1C[C@@H](NS(=O)(=O)N2CC[C@@H](C#N)C2)C1 (mixture of isomers) [Example 17A, (R)- and (S)-3-Cyano-N-{cis-3-[methyl(7H-pyrrolo[2,3-d]pyrimidin-4-yl)amino]cyclobutyl}pyrrolidine-1-sulfonamide]
< 5.00	CN(c1ncnc2[nH]ccc12)[C@H]1C[C@@H](NS(=O)(=O)[C@H]2C[C@H](CC#N)C2)C1 [Example 4B, trans-3-(cyanomethyl)-N-{cis-3-[methyl(7H-pyrrolo[2,3-d]pyrimidin-4-yl)amino]cyclobutyl}-cyclobutanesulfonamide]
< 5.00	CN(c1ncnc2[nH]ccc12)[C@H]1C[C@@H](NS(=O)(=O)[C@H]2C[C@@](C)(CC#N)C2)C1 [Example 7A, cis-3-(cyanomethyl)-3-methyl-N-{cis-3-[methyl(7H-pyrrolo[2,3-d]pyrimidin-4-yl)amino]cyclobutyl}-cyclo-butanesulfonamide]
< 5.00	CN(c1ncnc2[nH]ccc12)[C@H]1C[C@@H](NS(=O)(=O)[C@H]2C[C@@H](CC#N)C2)C1 [Example 4A, cis-3-(cyanomethyl)-N-{cis-3-[methyl(7H-pyrrolo[2,3-d]pyrimidin-4-yl)amino]-cyclobutyl}cyclobutane-sulfonamide]
< 5.00	CN(c1ncnc2[nH]ccc12)[C@H]1C[C@@H](NS(=O)(=O)C2CN(C3CC3)C2)C1 [Example 15, 1-Cyclopropyl-N-{cis-3-[methyl(7H-pyrrolo[2,3-d]pyrimidin-4-yl)amino]cyclobutyl}azetidine-3-sulfonamide]
< 5.00	CN(c1ncnc2[nH]ccc12)[C@H]1C[C@@H](CS(=O)(=O)N2CCC(F)(F)CC2)C1 [Example 25, N-(cis-3-{[(4,4-Difluoropiperidin-1-yl)sulfonyl]methyl}cyclobutyl)-N-methyl-7H-pyrrolo[2,3-d]pyrimidin-4-amine]
< 5.00	Cc1ncc(S(=O)(=O)N[C@H]2C[C@@H](N(C)c3ncnc4[nH]ccc34)C2)s1 [Example 38, 2-Methyl-N-{cis-3-[methyl(7H-pyrrolo[2,3-d]pyrimidin-4-yl)amino]cyclobutyl}-1,3-thiazole-5-sulfonamide]
< 5.00	CN(c1ncnc2[nH]ccc12)[C@H]1C[C@@H](CS(=O)(=O)CCC2CC2)C1 [Example 32, N-(cis-3-{[(2-Cyclopropylethyl)sulfonyl]methyl}cyclobutyl)-N-methyl-7H-pyrrolo[2,3-d]pyrimidin-4-amine]
< 5.00	CN(c1ncnc2[nH]ccc12)[C@H]1C[C@@H](NS(=O)(=O)[C@H]2C[C@](C)(CC#N)C2)C1 [Example 7B, trans-3-(cyanomethyl)-3-methyl-N-{cis-3-[methyl(7H-pyrrolo[2,3-d]pyrimidin-4-yl)amino]cyclobutyl}cyclo-butanesulfonamide]

SMILES	pIC50
CN(c1ncnc2[nH]ccc12)[C@H]1C[C@@H](NS(=O)(=O)N2C[C@H]3C[C@@H](C2)O3)C1 [Example 19, N-{cis-3-[Methyl(7H-pyrrolo[2,3-d]pyrimidin-4-yl)amino]cyclobutyl}-6-oxa-3-azabicyclo[3.1.1]heptane-3-sulfonamide]	< 5.00
